{"source": "paper PMC11363900", "about": "“A single-pass type I membrane protein, mannose-specific L-type lectin, potentially involved in the adhesion and invasion of Cryptosporidium parvum” (Parasite, 2024)", "target": "T1, CpLTL (GST-CpLTL) (Cryptosporidium parvum, UniProt Q5CWG8)", "T1 construct": "gene cgd6_5140; lectin-leg-like domain (nucleotides 130-852 of the ORF; domain 44-284 aa of 469), without signal peptide and TM, GST fusion kept (pGEX-4T-1), E. coli Rosetta (DE3), about 48 kDa", "T1 sequence (Q5CWG8 entry or part of it)": "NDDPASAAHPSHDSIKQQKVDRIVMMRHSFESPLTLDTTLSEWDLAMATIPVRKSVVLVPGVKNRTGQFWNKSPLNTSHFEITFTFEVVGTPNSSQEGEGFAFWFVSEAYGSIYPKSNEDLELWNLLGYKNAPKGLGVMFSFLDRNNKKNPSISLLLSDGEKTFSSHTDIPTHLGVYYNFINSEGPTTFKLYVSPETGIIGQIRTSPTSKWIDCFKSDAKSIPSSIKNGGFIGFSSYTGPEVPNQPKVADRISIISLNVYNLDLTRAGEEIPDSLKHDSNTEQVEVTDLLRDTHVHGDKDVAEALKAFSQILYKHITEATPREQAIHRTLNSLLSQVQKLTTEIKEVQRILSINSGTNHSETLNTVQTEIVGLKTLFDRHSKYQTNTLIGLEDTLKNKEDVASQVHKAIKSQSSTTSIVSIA", "experiment": "competition ELISA, immobilised GST-CpLTL, binding of horseradish peroxidase (mannose-rich glycoprotein), OD405", "settings": "100 mM mannose, 50 μg/mL HRP, PBS, 4 °C overnight; competitive with HRP glycan"}
{"compound": "OC[C@H]1OC(O)[C@@H](O)[C@@H](O)[C@@H]1O", "note": "(stereo partly shown) [mannose]", "values": [{"measurement": "competition ELISA, immobilised GST-CpLTL, binding of horseradish peroxidase (man)", "result": "Mannose showed competitive inhibition on the binding of HRP to GST-CpLTL protein"}]}
